Measured values from US6087509A, “1-Imidazolidinyl-phenyls” (Hoechst Marion Roussel, priority 1995, dated 2000).

Tests used:
[1] = test system: prostate in an intact male rat; assay: Reducing effect of the weight of the prostate in an intact male rat (systemic antiandrogen activity); assay type: in vivo; conditions: day 0 to 4 and day 7 to 10, intact male Sprague Dawley rats, compared to solvent only
Description: 3) Determination of the Reducing Effect of the Weight of the Prostate in an Intact Male Rat
The systemic activity of an antiandrogen is determined by the reduction in the weight of the prostate which it brings about in an intact animal.
The animals used are male rats of the Sprague Dawley strain weighing about 200 g, 7 weeks old, originating from the Iffa Credo breed (France). The experiment is carried out over two weeks, except for the weekend.
The product can be administered by oral, sub-cutaneous or percutaneous route.
The solvents used are then: by oral route: 0.5% aqueous solution of methylcellulose under a volume of 5 ml/kg, by sub-cutaneous route: wheatgerm oil in 10% ethanol under a volume of 0.2 ml/kg, and by percutaneous route: ethanol under a volume of 50 ul on previously-shaved skin.
The treatment is carried out from day 0 to day 4 then (after the weekend) from day 7 to day 10. The animals are sacrificed the day after the last treatment by bleeding the carotid artery, the prostates are removed and fixed in demineralized water containing 10% formol for 72 hours. They are then dissected and weighed.

androgen receptor = target: T1, androgen receptor (Rattus norvegicus, UniProt P15207); assay: Affinity for the androgen receptor (relative bond affinity, tritiated testosterone displacement in rat prostate cytosol); assay type: binding
T1 construct: from tissue; host or cells: prostate cytosol of castrated male Sprague Dawley rats
T1 sequence (P15207 1-902): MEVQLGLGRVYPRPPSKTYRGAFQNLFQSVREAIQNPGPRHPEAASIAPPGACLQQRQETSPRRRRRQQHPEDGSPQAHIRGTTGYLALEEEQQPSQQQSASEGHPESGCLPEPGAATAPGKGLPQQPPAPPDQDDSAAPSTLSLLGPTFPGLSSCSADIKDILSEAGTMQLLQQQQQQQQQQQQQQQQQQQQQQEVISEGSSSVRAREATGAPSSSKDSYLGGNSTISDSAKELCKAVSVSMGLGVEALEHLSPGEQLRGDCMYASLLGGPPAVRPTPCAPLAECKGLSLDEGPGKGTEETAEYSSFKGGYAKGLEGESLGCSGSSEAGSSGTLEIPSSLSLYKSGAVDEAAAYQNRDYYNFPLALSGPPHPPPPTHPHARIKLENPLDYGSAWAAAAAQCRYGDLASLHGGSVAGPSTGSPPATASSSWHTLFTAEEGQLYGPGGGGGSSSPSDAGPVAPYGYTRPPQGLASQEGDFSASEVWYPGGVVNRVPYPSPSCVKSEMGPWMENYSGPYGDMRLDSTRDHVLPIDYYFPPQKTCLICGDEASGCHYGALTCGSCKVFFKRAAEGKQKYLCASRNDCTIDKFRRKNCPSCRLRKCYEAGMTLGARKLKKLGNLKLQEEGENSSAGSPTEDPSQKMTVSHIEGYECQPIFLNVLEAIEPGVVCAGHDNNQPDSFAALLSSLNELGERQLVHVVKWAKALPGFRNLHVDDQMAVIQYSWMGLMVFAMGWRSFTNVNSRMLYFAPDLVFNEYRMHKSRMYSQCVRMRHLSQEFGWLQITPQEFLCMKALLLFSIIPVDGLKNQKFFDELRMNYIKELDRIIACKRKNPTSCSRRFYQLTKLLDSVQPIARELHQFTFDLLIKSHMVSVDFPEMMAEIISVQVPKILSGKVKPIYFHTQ
Description: The straight line of the equation I50 =(B/Tmax+B/Tmin)/2 is determined.

[2] = test system: costovertebral gland of the hamster; assay: Reducing effect on the costo-vertebral gland of the hamster (topical antiandrogen activity); assay type: in vivo; conditions: topical on right-hand C.V.G., 3 weeks (14 administrations), male hamsters, reduction in surface area
Description: 2) Determination of the Reducing Effect on the Costo-vertebral Gland of the Hamster
The local activity (topical) of an antiandrogen is determined by the reduction which it brings about in the surface area of the costovertebral gland of the hamster (hereafter C.V.G.), an androgen-dependent organ situated on the flanks of the animal.
The animals are male hamsters weighing about 140 g, 14 weeks old and originating from the Charles River breed (USA), they are subjected to a long photoperiod (16 hours of light, 8 hours of darkness). The animals are treated every day, except for the weekend, for 3 weeks (14 administrations). The product to be tested is applied, by topical route, on the right-hand C.V.G., the left-hand one serving as the control. The surface of the gland has been shaved beforehand. The animals are sacrificed by bleeding the carotid artery 24 hours after the last treatment. The C.V.G.'s are removed, measured and weighed. The local activity of a product is determined by the % of reduction in the surface area of the C.V.G. which it induces in comparison with the 1st day of the experiment and compared to the animals treated with solvent only.

Structure (SMILES)	% reduction in the prostate weight with 3 mg/kg P.O. [1]	RBA: Incubation 24 hours (androgen receptor)	% CVG reduction with 3 μg/jour [2]
N#Cc1ccc(N2C(=O)N(CCF)C(CF)(CF)C2=O)cc1C(F)(F)F [Example 1, 4-(4,4-bis(fluoromethyl)-2,5-dioxo-3-(2-fluoroethyl)-1-imidazolidinyl)-2-(trifluoromethyl)-benzonitrile]	-27%	42	-32%
CCN1C(=O)N(c2ccc(C#N)c(C(F)(F)F)c2)C(=O)C1(CF)CF [Example 3, 4-(2,5-dioxo-4,4-bis(fluoromethyl)-3-ethyl-1-imidazolidinyl)-2-(trifluoromethyl)-benzonitrile]	-20%	43	-33%
CC1(C)C(=O)N(c2ccc(C#N)c(C(F)(F)F)c2)C(=O)N1CC#CCO [Example 8, 4-(3-(4-hydroxy-2-butyn-1-yl)-4,4-dimethyl-2,5-dione-1-imidazolidinyl)-2-(trifluoromethyl)-benzonitrile]	-35%		
N#Cc1ccc(N2C(=O)N(CCCCO)C3(CCCCC3)C2=O)cc1C(F)(F)F [Example 9, 4-[2,4-dioxo-1-(4-hydroxybutyl)-1,3-diazaspiro-[4.5]decan-3-yl]-2-(trifluoromethyl)-benzonitrile]			-25%
